Tests used:
[1] = Rat CIA biodistribution study (QWBA); assay type: in vivo; conditions: CIA rats
Protocol: 50 uCi, 400 nmol of each compound was given intravenously (IV) through the tail vein and allowed to circulate 1 hour, 3 hours, or 24 hours. Rats were euthanized by CO2 asphyxiation, shaved, and frozen in dry ice chilled hexane. QWBA was performed and quantified as described.
Frozen carcasses were allowed to off gas hexane overnight at −20° and then embedded in chilled 2% carboxymethylcellulose (Sigma Aldrich) and sectioned sagittally at a thickness of 40 μm on an H/I Bright 8250 Cryostat (Hacker Instruments). Radioactive control guides were drilled into each block to verify even cutting depth along the length of the section. […]
Quantification of the radioactivity detected in WBA samples was evaluated by measuring the pixel density/mm^2 (“SI”: Signal Intensity/Area−background) using AIDA Image Analyzer v 5.1 Whole Body Autoradiography Professional software (Raytest). […] For quantification, all visible knee or IVD (intervertebral disc) tissues for one rodent across all collected sections were measured and averaged together to generate one knee or IVD value per animal. […] To collect quantified values for other tissues, ROIs were drawn around blood in the heart ventricle, spinotrapezius muscle, the liver, or the kidney (including cortex and medulla) in all sections in which the tissue was observed and then averaged to yield one value per tissue per animal. […]

[2] = Comparison of joint retention time among radiolabeled peptides (QWBA, knee and IVD); assay type: in vivo; design: Peptide Signal Retention in Knee / Peptide Signal Retention in IVD: unit not given here
Protocol: Frozen carcasses were allowed to off gas hexane overnight at −20° and then embedded in chilled 2% carboxymethylcellulose (Sigma Aldrich) and sectioned sagittally at a thickness of 40 μm on an H/I Bright 8250 Cryostat (Hacker Instruments). Radioactive control guides were drilled into each block to verify even cutting depth along the length of the section. The radioactive guide consisted of ^14C-Glycine (American Radiolabeled Chemicals, “ARC”) at 0.5 uCi/ml in 0.5% BSA (Sigma Aldrich) in PBS. Sections were collected onto 4-inch wide tape (Scotch 821, ULINE) at 2-4 depths to sample approximately 30 tissues with particular focus on the knees and spine. Collected sections were freeze dried in the cryostat for 48-72 hours then mounted on sturdy paper and covered with a single protective layer of cellophane (Reynolds Food Service Film). Mounted sections were exposed to phosphor imager plates (Raytest) along with a radioactive standard Curve (1465-PL, ARC) for 7-days, scanned on a Raytest CR-35 at “25 μm sensitive” setting.
Quantification of the radioactivity detected in WBA samples was evaluated by measuring the pixel density/mm^2 (“SI”: Signal Intensity/Area−background) using AIDA Image Analyzer v 5.1 Whole Body Autoradiography Professional software (Raytest). Regions of interest (ROIs) were drawn manually around the entire visible tissue, comparing the sectioned sample to the autoradiogram. For quantification, all visible knee or IVD (intervertebral disc) tissues for one rodent across all collected sections were measured and averaged together to generate one knee or IVD value per animal. Typically were sampled 1-2 knee values (from femoral and tibial cartilage) per 1-2 sections per animal and 3-10 IVD per 1-2 sections per animal. To collect quantified values for other tissues, ROIs were drawn around blood in the heart ventricle, spinotrapezius muscle, the liver, or the kidney (including cortex and medulla) in all sections in which the tissue was observed and then averaged to yield one value per tissue per animal.
Data were presented as nmol of compound per gram of tissue. The commercial standard strips co-exposed with each WBA sample set were calibrated so that a known amount of radioactive counts per minute (CPM) per gram of tissue, determined by liquid scintillation counting (LSC), corresponded to the measured WBA SI at 11 standard strip concentration data points. The regression line of the log 10 transformed WBA signal intensity plotted against the log 10 transformed CPM/g gave a linear range of 1×10^5 to 7.5×10^7 WBA SI, corresponding to 6.3 nCi/g to 3.3 μCi/g. The log 10 concentration of radioactivity in each tissue (CPM/g) was interpolated from the standard curve, converted to linear values, and translated from CPM/g to uCi/g by interpolation against an LSC CPM to μCi standard curve. Uptake (nmol of compound/g of tissue) was determined by dividing the μCi/g tissue by the μCi/nmol specific activity of the peptide.
Peptide(SEQ ID NO: 105) was dosed at 57-60 nmol. Peptide(SEQ ID NO: 103) was dosed at 130 nmol. Peptide(SEQ ID NO: 184) was dosed at 150 nmol. […] It should be noted that detection of retention is based on an assay that detects radiolabeling of the N-terminus of each of the tested conjugates, thus decrease in signal over time may be due not only to peptide diffusion back out of the cartilage but also aminopeptidase-mediated removal of N-terminal amino acid, general peptide cleavage, or other mechanisms. Results as measured by QWBA methods described herein are shown in Tables 6 and 7 below and FIG. 11.

[3] = Immunohistochemistry of knee and ankle sections with anti-peptide(SEQ ID NO: 105) and anti-Dex antibodies; assay type: in vivo, C57/Bl6 mice; conditions: mice, 100 nmol IV, three hours
Excerpt: Immunohistochemistry methods were developed to detect peptide(SEQ ID NO: 105) and dexamethasone in cartilage of joints using a generated rabbit polyclonal anti-peptide(SEQ ID NO: 105) antibody and a commercially available anti-Dex antibody (Abcam, ab35000). Standard immunization methods were used to generate the anti-peptide(SEQ ID NO: 105) polyclonal antibody, which increases the immunogenicity of the dosed material and are not representative of potential immunogenicity of the unmodified peptide or therapeutic candidate molecules. To produce the immunogen for peptide(SEQ ID NO: 105) antibody generation, peptide(SEQ ID NO: 105) was conjugated to keyhole limpet hemocyanin (KLH) using ImjectTMmcKLH. Peptide(SEQ ID NO: 105)-KLH was administered as part of a pool of other KLH-conjugated peptides emulsified with Freund's complete adjuvant and administered to New Zealand White Rabbits following a standard schedule. The polyclonal antibody was purified from the serum using a HiTrap® mAb Select cartridge (GE Healthcare). Western blot was used to confirm antibody binding to the peptide. […]

[4] = Resistance to chemical reduction (50 mM DTT, LC-MS); assay type: physicochemical; conditions: 50 mM DTT for 60 minutes at room temperature
Protocol: The synthetically produced peptides were then analyzed side-by-side with peptides produced in the recombinant expression system as described above in EXAMPLE 1.

With “GSGVPINVRCRGSRDCLDPCRRAGMRFGRCINSRCHCTP [peptide(SEQ ID NO: 105)]” the “accumulation in other tissues of the body” value ([1]; 400 nmol IV, 1, 3, 24 hrs, except liver and kidney) was “minimal accumulation”, the “signal in cartilage (whole body autoradiography)” value ([1]; 400 nmol IV, 1 hr, 3 hrs, 24 hrs) was “signal can be detected” and the “Peptide Signal Retention in IVD” value ([2]; 0.08 Hours) was 44.42. The “Peptide Signal Retention in Knee” value ([2]; 0.08 Hours) was 91.00, the “Peptide Signal Retention in IVD” value ([2]; 0.5 Hours) was 101.41 and the “Peptide Signal Retention in Knee” value ([2]; 0.5 Hours) was 102.49. For the same sequence, the “Peptide Signal Retention in IVD” value ([2]; 1 Hours) was 100.00, the “Peptide Signal Retention in Knee” value ([2]; 1 Hours) was 100.00 and the “Peptide Signal Retention in IVD” value ([2]; 3 Hours) was 106.39. For the same sequence, the “Peptide Signal Retention in Knee” value ([2]; 3 Hours) was 72.64, the “Peptide Signal Retention in IVD” value ([2]; 8 Hours) was 81.45 and the “Peptide Signal Retention in Knee” value ([2]; 8 Hours) was 42.42. For the same sequence, the “Peptide Signal Retention in IVD” value ([2]; 24 Hours) was 36.89, the “Peptide Signal Retention in Knee” value ([2]; 24 Hours) was 22.61 and the “Peptide Signal Retention in IVD” value ([2]; 48 Hours) was 19.96. For the same sequence, the “Peptide Signal Retention in Knee” value ([2]; 48 Hours) was 9.73, the “Peptide Signal Retention in IVD” value ([2]; 72 Hours) was 13.43 and the “Peptide Signal Retention in Knee” value ([2]; 72 Hours) was 8.76. For the same sequence, the “Peptide Signal Retention in IVD” value ([2]; 96 Hours) was 9.17, the “Peptide Signal Retention in Knee” value ([2]; 96 Hours) was 5.05 and the “Immunostaining with anti-peptide(SEQ ID NO: 105) antibody in articular cartilage and growth plates of knee joint sections” value [3] was “strong positive staining”. For the same sequence, the “resistance to chemical reduction” value [4] was “very little formation of a new peak”.
